# d = 2'-deoxy (DNA); r = 2'-OH (RNA)
# Test system: LHPP gene
# Assay: High-throughput screening of saRNAs targeting LHPP promoter: LHPP mRNA by one-step RT-qPCR in Huh7 cells
# Type: cell-based, human
# Details: 10 nM saRNA, 72 hours, relative to control (Mock)
# Protocol: Human liver cancer cell line Huh7 was cultured in DMEM medium (Gibco), containing 10% of calf serum (Sigma-Aldrich) and 1% of penicillin/streptomycin (Gibco). The cells were cultured at 5% CO2 and 37° C. According to the instructions provided by the manufacturer, RNAiMax (Invitrogen, Carlsbad, Calif.) was used to transfect small activating RNAs at a concentration of 10 nM (unless otherwise specified).
# At the end of transfection, the media were discarded, and each well was washed with 150 μL of PBS once. After discarding the PBS, 50 μL of cell lysis buffer (Takara) was added to each well and incubated at room temperature for 5 min. 1 μL of the resulted cell lysis was taken from each well and analyzed by qPCR on an ABI 7500 fast real-time PCR system (Applied Biosystems) using a one-step TB Green™ PrimeScrip™ RT-PCR kit II (Takara, RR086A) Each transfection sample was repeatedly amplified in 3 replicate wells.
# Reaction conditions were as follows: reverse transcription reaction (stage 1): 5 min at 42° C., 10 s at 95° C.; PCR reaction (stage 2): 5 s at 95° C., 20 s at 60° C., 45 cycles of amplification. HPRT1 and TBP were used as internal reference genes. PCR primers used for amplifying LHPP, HPRT1 and TBP genes are shown in Table 2, wherein LHPP was amplified using the LHPP F1/R1 primer pair.
# To calculate the relative expression level (Erel) of LHPP (target gene) in an saRNA-transfected sample relative to control treatment (Mock), the Ct values of the target gene and the two internal reference genes were substituted into formula 1
# Erel=2^(CtT^m^-CtT^s^)/((2^(CtR1^m^-CtR1^s^)*2^(CtR2^m^-CtR2^s^))^(1/2))
# wherein CtTm was the Ct value of the target gene from the control (Mock) sample; CtTs was the Ct value of the target gene from the saRNA-treated sample; CtR1m was the Ct value of the internal reference gene 1 from the control (Mock) sample; CtR1s was the Ct value of the internal reference gene 1 from the saRNA-treated sample; CtR2m was the Ct value of the internal reference gene 2 from the control (Mock) sample; and CtR2s was the Ct value of the internal reference gene 2 from the saRNA-treated sample.
# In order to obtain saRNAs capable of activating LHPP transcription, Huh7 cells were transfected with each of the aforementioned 290 saRNAs with a transfection concentration of 10 nM, and 72 hours later, according to the same method as described above, the cells were lysed and analyzed by one-step RT-qPCR to obtain the relative (compared with the control (Mock)) expression level of LHPP gene for each saRNA-treated sample. […] The observed maximum activation and maximum inhibition is 3.46 fold and 0.49 fold, respectively, saRNAs with activating activity are referred to as activating saRNAs, and the saRNAs with inhibiting activity are referred to as inhibiting saRNAs.
substance,measurement,value
"RAG7-738: saRNA duplex; sense CCUGGGUUUAACGCAUUGUTT (SEQ ID NO: 159), antisense ACAAUGCGUUAAACCCAGGTT (SEQ ID NO: 323) (sugars from the 5' end r19 d2, backbone not given here)",Fold of changes in relative LHPP mRNA expression level,1.11 fold
same,Fold of changes in relative LHPP mRNA expression level (log2),0.15 log2
"RAG7-735: saRNA duplex; sense GGGUUUAACGCAUUGUGAUTT (SEQ ID NO: 114), antisense AUCACAAUGCGUUAAACCCTT (SEQ ID NO: 278) (sugars from the 5' end r19 d2, backbone not given here)",Fold of changes in relative LHPP mRNA expression level,1.19 fold
same,Fold of changes in relative LHPP mRNA expression level (log2),0.25 log2
"RAG7-32: saRNA duplex; sense UUGCACCCGGUCUUCUUGCTT (SEQ ID NO: 44), antisense GCAAGAAGACCGGGUGCAATT (SEQ ID NO: 208) (sugars from the 5' end r19 d2, backbone not given here)",Fold of changes in relative LHPP mRNA expression level,1.40 fold
same,Fold of changes in relative LHPP mRNA expression level (log2),0.49 log2
"RAG7-720: saRNA duplex; sense UGAUAGUCCCGUUUUCUUCTT (SEQ ID NO: 62), antisense GAAGAAAACGGGACUAUCATT (SEQ ID NO: 226) (sugars from the 5' end r19 d2, backbone not given here)",Fold of changes in relative LHPP mRNA expression level,1.33 fold
same,Fold of changes in relative LHPP mRNA expression level (log2),0.41 log2
"RAG7-182: saRNA duplex; sense UCUCAAUUUGCCUUUGACCTT (SEQ ID NO: 85), antisense GGUCAAAGGCAAAUUGAGATT (SEQ ID NO: 249) (sugars from the 5' end r19 d2, backbone not given here)",Fold of changes in relative LHPP mRNA expression level,1.26 fold
same,Fold of changes in relative LHPP mRNA expression level (log2),0.33 log2
"RAG7-702: saRNA duplex; sense CUCAGCCCAGGUCCUAUGCTT (SEQ ID NO: 140), antisense GCAUAGGACCUGGGCUGAGTT (SEQ ID NO: 304) (sugars from the 5' end r19 d2, backbone not given here)",Fold of changes in relative LHPP mRNA expression level,1.14 fold
same,Fold of changes in relative LHPP mRNA expression level (log2),0.19 log2
"RAG7-162: saRNA duplex; sense UUCUUAGGGACUUGUUUUCTT (SEQ ID NO: 19), antisense GAAAACAAGUCCCUAAGAATT (SEQ ID NO: 183) (sugars from the 5' end r19 d2, backbone not given here)",Fold of changes in relative LHPP mRNA expression level,1.56 fold
same,Fold of changes in relative LHPP mRNA expression level (log2),0.64 log2
"RAG7-89: saRNA duplex; sense ACACCGUUUCAGGGGCGAGTT (SEQ ID NO: 104), antisense CUCGCCCCUGAAACGGUGUTT (SEQ ID NO: 268) (sugars from the 5' end r19 d2, backbone not given here)",Fold of changes in relative LHPP mRNA expression level,1.21 fold
same,Fold of changes in relative LHPP mRNA expression level (log2),0.28 log2
"RAG7-884: saRNA duplex; sense CAGAAGUAAAGUGUUCUCGTT (SEQ ID NO: 101), antisense CGAGAACACUUUACUUCUGTT (SEQ ID NO: 265) (sugars from the 5' end r19 d2, backbone not given here)",Fold of changes in relative LHPP mRNA expression level,1.22 fold
same,Fold of changes in relative LHPP mRNA expression level (log2),0.28 log2
"RAG7-132: saRNA duplex; sense CUCUUUGUCCGCUGAUCUCTT (SEQ ID NO: 4), antisense GAGAUCAGCGGACAAAGAGTT (SEQ ID NO: 168) (sugars from the 5' end r19 d2, backbone not given here)",Fold of changes in relative LHPP mRNA expression level,1.86 fold
same,Fold of changes in relative LHPP mRNA expression level (log2),0.90 log2
"RAG7-106: saRNA duplex; sense GAAAGCUUCCGAAAAGGACTT (SEQ ID NO: 150), antisense GUCCUUUUCGGAAGCUUUCTT (SEQ ID NO: 314) (sugars from the 5' end r19 d2, backbone not given here)",Fold of changes in relative LHPP mRNA expression level,1.12 fold
same,Fold of changes in relative LHPP mRNA expression level (log2),0.17 log2
"RAG7-677: saRNA duplex; sense AUCUAUGCAGGGCUGUUAUTT (SEQ ID NO: 20), antisense AUAACAGCCCUGCAUAGAUTT (SEQ ID NO: 184) (sugars from the 5' end r19 d2, backbone not given here)",Fold of changes in relative LHPP mRNA expression level,1.56 fold
same,Fold of changes in relative LHPP mRNA expression level (log2),0.64 log2
"RAG7-837: saRNA duplex; sense AGGGGCCAUUGAGGAAACUTT (SEQ ID NO: 109), antisense AGUUUCCUCAAUGGCCCCUTT (SEQ ID NO: 273) (sugars from the 5' end r19 d2, backbone not given here)",Fold of changes in relative LHPP mRNA expression level,1.20 fold
same,Fold of changes in relative LHPP mRNA expression level (log2),0.26 log2
"RAG7-194: saRNA duplex; sense GGUGCCUUCUUGUCUCAAUTT (SEQ ID NO: 48), antisense AUUGAGACAAGAAGGCACCTT (SEQ ID NO: 212) (sugars from the 5' end r19 d2, backbone not given here)",Fold of changes in relative LHPP mRNA expression level,1.38 fold
same,Fold of changes in relative LHPP mRNA expression level (log2),0.47 log2
"RAG7-709: saRNA duplex; sense UUUUCUUCUCAGCCCAGGUTT (SEQ ID NO: 126), antisense ACCUGGGCUGAGAAGAAAATT (SEQ ID NO: 290) (sugars from the 5' end r19 d2, backbone not given here)",Fold of changes in relative LHPP mRNA expression level,1.17 fold
same,Fold of changes in relative LHPP mRNA expression level (log2),0.22 log2
"RAG7-130: saRNA duplex; sense CUUUGUCCGCUGAUCUCCUTT (SEQ ID NO: 77), antisense AGGAGAUCAGCGGACAAAGTT (SEQ ID NO: 241) (sugars from the 5' end r19 d2, backbone not given here)",Fold of changes in relative LHPP mRNA expression level,1.28 fold
same,Fold of changes in relative LHPP mRNA expression level (log2),0.36 log2
"RAG7-696: saRNA duplex; sense CCAGGUCCUAUGCAUCCUCTT (SEQ ID NO: 17), antisense GAGGAUGCAUAGGACCUGGTT (SEQ ID NO: 181) (sugars from the 5' end r19 d2, backbone not given here)",Fold of changes in relative LHPP mRNA expression level,1.58 fold
same,Fold of changes in relative LHPP mRNA expression level (log2),0.66 log2
"RAG7-706: saRNA duplex; sense UCUUCUCAGCCCAGGUCCUTT (SEQ ID NO: 15), antisense AGGACCUGGGCUGAGAAGATT (SEQ ID NO: 179) (sugars from the 5' end r19 d2, backbone not given here)",Fold of changes in relative LHPP mRNA expression level,1.63 fold
same,Fold of changes in relative LHPP mRNA expression level (log2),0.70 log2
"RAG7-138: saRNA duplex; sense UUCCUGCUCUUUGUCCGCUTT (SEQ ID NO: 53), antisense AGCGGACAAAGAGCAGGAATT (SEQ ID NO: 217) (sugars from the 5' end r19 d2, backbone not given here)",Fold of changes in relative LHPP mRNA expression level,1.36 fold
same,Fold of changes in relative LHPP mRNA expression level (log2),0.45 log2
"RAG7-165: saRNA duplex; sense CCUUUCUUAGGGACUUGUUTT (SEQ ID NO: 152), antisense AACAAGUCCCUAAGAAAGGTT (SEQ ID NO: 316) (sugars from the 5' end r19 d2, backbone not given here)",Fold of changes in relative LHPP mRNA expression level,1.11 fold
same,Fold of changes in relative LHPP mRNA expression level (log2),0.16 log2
"RAG7-33: saRNA duplex; sense UUUGCACCCGGUCUUCUUGTT (SEQ ID NO: 119), antisense CAAGAAGACCGGGUGCAAATT (SEQ ID NO: 283) (sugars from the 5' end r19 d2, backbone not given here)",Fold of changes in relative LHPP mRNA expression level,1.18 fold
same,Fold of changes in relative LHPP mRNA expression level (log2),0.24 log2
"RAG7-679: saRNA duplex; sense UCAUCUAUGCAGGGCUGUUTT (SEQ ID NO: 107), antisense AACAGCCCUGCAUAGAUGATT (SEQ ID NO: 271) (sugars from the 5' end r19 d2, backbone not given here)",Fold of changes in relative LHPP mRNA expression level,1.20 fold
same,Fold of changes in relative LHPP mRNA expression level (log2),0.27 log2

# Reference: patent publication US20220096516A1, “OLIGONUCLEOTIDE MOLECULE AND APPLICATION THEREOF IN TUMOR THERAPY” (Ractigen Therapeutics, priority 2019, published 2022)
